Here are results for eleven compounds from ChEMBL document CHEMBL1201862, “PubChem BioAssay data set” (2004).

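Exposure lasted 48 hours, with cells grown in 96-well plates and compounds tested at five concentrations. Here, GI50 denotes the concentration required for 50% inhibition of growth.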 Activity calls are given as the source filed them. Rule as the data show it: active = GI50 up to about 1.1 µM and inactive = higher.

Some test systems named below: 786-0; A498; COLO 205; EKVX; HCC 2998; MCF7; MDA-MB-231; MOLT-4; NCI-H460; NCI-H522; OVCAR-3; PC-3; RXF 393; SF-268; SF-295; SN12C; SNB-19; SW-620; U-251; NCI/ADR-RES.
Common to all, as to assay: NCI anticancer screen, dose series, 48 h

Turning to `CCCCCCCCCCCCCC(=O)NO`, the GI50 was 7.1 µM (inactive) with 786-0; 23.5 µM (inactive) with A498; 10.5 µM (inactive) in the assay on COLO 205; 21.4 µM (inactive) in the assay with EKVX; 14.4 µM (inactive) with HCC 2998; 3.8 µM (inactive) in the assay with MCF7. Also, the GI50 is 7.01 µM (inactive) in the assay on MDA-MB-231; 0.492 µM (active) in the assay with MOLT-4; 11.8 µM (inactive) with NCI-H460; 1.01 µM (active) in the assay on NCI-H522; 10.1 µM (inactive) with OVCAR-3; 4.32 µM (inactive) in the assay on PC-3. Further, the GI50 in the assay with RXF 393 is 5.75 µM (inactive); in the assay with SF-268, 7.78 µM (inactive); with SF-295, 21.4 µM (inactive); in the assay with SN12C, 8.55 µM (inactive); with SNB-19, 23.9 µM (inactive); with SW-620, 16.3 µM (inactive). Besides, the GI50 with U-251 is 10.7 µM (inactive).
For `NCCCc1nonc1C(=O)O`, the GI50 in the assay on 786-0, in the assay with COLO 205, with EKVX, with HCC 2998, in the assay on MCF7 and in the assay with MDA-MB-231 was > 100 µM (inactive) throughout. For the same compound, the GI50 in the assay on MOLT-4, in the assay with NCI-H460, in the assay with NCI/ADR-RES, in the assay on OVCAR-3, in the assay on PC-3 and in the assay on RXF 393 was > 100 µM (inactive) each time. The GI50 in the assay on SF-268, in the assay on SF-295, with SN12C, in the assay with SNB-19, in the assay on SW-620 and in the assay on U-251 was > 100 µM (inactive) throughout.
As to `N#CC(C#N)=Cc1ccc2c(c1)OC(Cl)O2` (centres undefined), the GI50 with 786-0 was 20.3 µM (inactive); in the assay on COLO 205, 24.3 µM (inactive); in the assay on EKVX, 27.4 µM (inactive); in the assay on MCF7, 24.4 µM (inactive); in the assay on MOLT-4, 29.8 µM (inactive); with NCI-H522, > 10 µM (inactive). Besides, the GI50 in the assay on NCI/ADR-RES is 42.1 µM (inactive); in the assay on OVCAR-3, 22.1 µM (inactive); with PC-3, 23.2 µM (inactive); in the assay with RXF 393 it was 28.5 µM (inactive); in the assay with SF-268 it was 29.4 µM (inactive); in the assay on SF-295, 19.3 µM (inactive). Besides, the GI50 in the assay on SN12C is 24.9 µM (inactive); in the assay with SNB-19 it was 26.4 µM (inactive); with SW-620 it was > 10 µM (inactive); in the assay with U-251, 23.2 µM (inactive).
For `CCC(=O)C(C(C)/C=C/CCSc1ccccc1)C(O)CCCCCC(=O)OC` (centres undefined), the GI50 with 786-0 was > 100 µM (inactive); in the assay on COLO 205, > 100 µM (inactive); with EKVX it was > 100 µM (inactive); in the assay with HCC 2998, > 100 µM (inactive); with MCF7 it was 66.4 µM (inactive); in the assay on MDA-MB-231, > 100 µM (inactive). Also, the GI50 is 27.1 µM (inactive) with MOLT-4; > 100 µM (inactive) with NCI-H460; 89.3 µM (inactive) in the assay on NCI-H522; 99.5 µM (inactive) with NCI/ADR-RES; > 100 µM (inactive) with OVCAR-3; 84.1 µM (inactive) in the assay with PC-3. Also, the GI50 in the assay on RXF 393, in the assay with SF-268, with SF-295, in the assay on SN12C, in the assay with SNB-19 and in the assay on SW-620 was > 100 µM (inactive) in each case. In addition, the GI50 in the assay with U-251 is 77.8 µM (inactive).
Take `Cc1ccc(C(=O)N/N=C(\N=N\c2ccccc2)c2ccc(N(C)C)cc2)cc1`: the GI50 was 68.2 µM (inactive) with 786-0; 57.3 µM (inactive) in the assay with COLO 205; > 100 µM (inactive) in the assay with EKVX; 90.8 µM (inactive) with HCC 2998; 48.8 µM (inactive) with MCF7; > 100 µM (inactive) in the assay with MDA-MB-231. For the same compound, the GI50 in the assay on MOLT-4 is > 100 µM (inactive); in the assay on NCI-H460, > 100 µM (inactive); in the assay with NCI-H522, 65.8 µM (inactive); in the assay on NCI/ADR-RES, > 100 µM (inactive); with OVCAR-3, > 100 µM (inactive); in the assay on PC-3 it was > 100 µM (inactive). Moreover, the GI50 with SF-268 is 50.7 µM (inactive); in the assay with SF-295, > 100 µM (inactive); with SN12C, > 100 µM (inactive); in the assay with SNB-19, 80.4 µM (inactive); in the assay on SW-620, > 100 µM (inactive); with U-251 it was > 100 µM (inactive).
As for `O=c1c2cc(S(=O)(=O)Nc3ccccc3Cl)ccc2ncn1NS(=O)(=O)c1ccc(Br)cc1`, the GI50 in the assay on 786-0, in the assay on COLO 205, in the assay with EKVX, with HCC 2998, in the assay with MCF7 and with MDA-MB-231 was > 37.5 µM (inactive) in each case. In addition, the GI50 with MOLT-4, in the assay on NCI-H460, in the assay with NCI-H522, in the assay with NCI/ADR-RES, in the assay on OVCAR-3 and in the assay on PC-3 was > 37.5 µM (inactive) each time. For the same compound, the GI50 in the assay on SF-268, in the assay with SF-295, in the assay with SN12C, with SNB-19, in the assay on SW-620 and in the assay with U-251 was > 37.5 µM (inactive) each time.
For the compound `COC(=O)C1=C(C(=O)NNc2ccccc2)N(c2cccnc2Cl)C(c2ccccc2)=CC1c1ccccc1` (centres undefined), the GI50 is 86.3 µM (inactive) in the assay on 786-0; > 100 µM (inactive) in the assay on A498; 66.7 µM (inactive) in the assay with COLO 205; > 100 µM (inactive) in the assay with EKVX; 60.3 µM (inactive) with HCC 2998; 34.9 µM (inactive) in the assay on MCF7. The GI50 in the assay with MDA-MB-231 is 56.1 µM (inactive); in the assay on MOLT-4, 15.2 µM (inactive); in the assay on NCI-H460 it was 65.2 µM (inactive); in the assay on NCI-H522, > 100 µM (inactive); in the assay on OVCAR-3 it was 31.7 µM (inactive); in the assay on PC-3, 31.3 µM (inactive). Further, the GI50 was 88.1 µM (inactive) in the assay on SF-268; 19.6 µM (inactive) in the assay on SF-295; > 100 µM (inactive) with SN12C; > 100 µM (inactive) with SNB-19; 31.6 µM (inactive) in the assay on SW-620; 47.1 µM (inactive) in the assay on U-251.
On to `CCOC(=O)C1Cc2ccc(C)cc2C1=O` (centres undefined), for which the GI50 in the assay on 786-0, in the assay on COLO 205, in the assay with EKVX, with HCC 2998, with MCF7 and with MDA-MB-231 was > 100 µM (inactive) in each case. Besides, the GI50 in the assay with MOLT-4 was 39.4 µM (inactive); in the assay on NCI-H460, > 100 µM (inactive); with NCI/ADR-RES, 85.1 µM (inactive); in the assay with OVCAR-3 it was 46.9 µM (inactive); in the assay with PC-3, > 100 µM (inactive); in the assay on SF-268, 79.3 µM (inactive). The GI50 with SF-295 was > 100 µM (inactive); in the assay on SN12C it was 82.6 µM (inactive); in the assay with SW-620, 88.1 µM (inactive); in the assay on U-251, 58.1 µM (inactive).
With `COc1ccc(NC(=O)Oc2cc(C)c3ccc(=O)cc-3o2)c(OC)c1.COc1ccc(NC(=O)Oc2ccc3c(C)cc(=O)oc3c2)c(OC)c1`, the GI50 in the assay with 786-0 is > 100 µM (inactive); in the assay with A498 it was 31.9 µM (inactive); with COLO 205, > 100 µM (inactive); in the assay on EKVX, > 100 µM (inactive); in the assay on HCC 2998 it was 82.8 µM (inactive); with MDA-MB-231, > 100 µM (inactive). In addition, the GI50 in the assay on MOLT-4, with NCI-H460, with NCI-H522, in the assay on NCI/ADR-RES, in the assay with OVCAR-3 and in the assay with PC-3 was > 100 µM (inactive) throughout. The GI50 with RXF 393, in the assay on SF-268, in the assay on SF-295, in the assay with SN12C, in the assay on SNB-19 and in the assay with SW-620 was > 100 µM (inactive) throughout. The GI50 with U-251 is > 100 µM (inactive).
`C=CCc1ccccc1CC1(OCC)OC(=O)c2ccccc21` (centres undefined): the GI50 in the assay on 786-0 is > 100 µM (inactive); in the assay on A498 it was > 100 µM (inactive); with COLO 205, 67.1 µM (inactive); with EKVX, > 100 µM (inactive); with HCC 2998 it was > 100 µM (inactive); in the assay with MCF7, > 100 µM (inactive). In addition, the GI50 was 72.8 µM (inactive) in the assay on MDA-MB-231; 48.8 µM (inactive) in the assay on MOLT-4; 77.6 µM (inactive) with NCI-H460; 67.8 µM (inactive) in the assay on NCI-H522; 41.2 µM (inactive) in the assay on OVCAR-3; 83 µM (inactive) in the assay on PC-3. The GI50 with RXF 393 is > 100 µM (inactive); with SF-268, > 100 µM (inactive); with SF-295, > 100 µM (inactive); in the assay on SN12C, 87.7 µM (inactive); in the assay with SNB-19, > 100 µM (inactive); with SW-620 it was > 100 µM (inactive). For the same compound, in the assay on U-251, the GI50 is > 100 µM (inactive).
For the compound `CC(=O)C1C(=O)C(=O)N(c2cccc([N+](=O)[O-])c2)C1=O` (centres undefined), the GI50 in the assay on 786-0, with COLO 205, in the assay with EKVX, in the assay on HCC 2998, in the assay with MCF7 and in the assay with MDA-MB-231 was > 100 µM (inactive) each time. The GI50 with MOLT-4, in the assay with NCI-H460, in the assay on NCI-H522, in the assay with NCI/ADR-RES, in the assay with OVCAR-3 and in the assay with PC-3 was > 100 µM (inactive) in each case. The GI50 in the assay on RXF 393, with SF-268, in the assay on SF-295, in the assay with SN12C, in the assay on SNB-19 and with SW-620 was > 100 µM (inactive) throughout. The GI50 in the assay on U-251 was > 100 µM (inactive).
